Source: ChEMBL document CHEMBL1201862, “PubChem BioAssay data set” (2004)
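The compound was tested at five concentrations on cells cultured in 96-well plates, with a 48-hour exposure period. GI50: concentration for 50% inhibition of growth.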 The source made the active and inactive calls. Cut-off read from the data, not from the text of the source: active = GI50 up to about 1.1 µM and inactive = higher.

Experiments:
Assay in all cases: growth of human tumour cells (NCI), 48 h
A498 = tested on: A498
BT-549 = tested on: BT-549
CAKI-1 = tested on: CAKI-1
COLO 205 = tested on: COLO 205
EKVX = tested on: EKVX
HCT-15 = tested on: HCT-15
HL-60 = tested on: HL-60
HT-29 = tested on: HT-29
IGROV-1 = tested on: IGROV-1
MCF7 = tested on: MCF7
NCI-H522 = tested on: NCI-H522
OVCAR-4 = tested on: OVCAR-4
OVCAR-5 = tested on: OVCAR-5
SF-295 = tested on: SF-295
SNB-75 = tested on: SNB-75
T47D = tested on: T47D
TK-10 = tested on: TK-10
UO-31 = tested on: UO-31
HOP-92 = tested on: HOP-92

Compound	GI50 (A498)	GI50 (BT-549)	GI50 (CAKI-1)	GI50 (COLO 205)	GI50 (EKVX)	GI50 (HCT-15) [µM]	GI50 (HL-60)	GI50 (HT-29)	GI50 (IGROV-1)	GI50 (MCF7)	GI50 (NCI-H522)	GI50 (OVCAR-4)	GI50 (OVCAR-5)	GI50 (SF-295)	GI50 (SNB-75)	GI50 (T47D)	GI50 (TK-10)	GI50 (UO-31)	GI50 (HOP-92)
Cc1cccc(NC(=S)Nc2cccc(Cl)c2)n1	> 70.3 µM (inactive)	> 100 µM (inactive)	> 100 µM (inactive)	> 100 µM (inactive)	> 100 µM (inactive)	> 100	> 100 µM (inactive)	> 100 µM (inactive)	44.2 µM (inactive)	> 100 µM (inactive)	49.9 µM (inactive)	> 100 µM (inactive)	> 100 µM (inactive)	32.1 µM (inactive)	> 54 µM (inactive)	> 100 µM (inactive)	> 100 µM (inactive)	> 100 µM (inactive)	
Cc1ccc(N2C=Nn3c(nc4sc5c(c4c3=O)CCCC5)C2)cc1	54.5 µM (inactive)	> 100 µM (inactive)	46 µM (inactive)	67.8 µM (inactive)	80 µM (inactive)	48.2		47.1 µM (inactive)	88.3 µM (inactive)	38.3 µM (inactive)	39.1 µM (inactive)	37.8 µM (inactive)	62.5 µM (inactive)	44.8 µM (inactive)	52 µM (inactive)	43.3 µM (inactive)	86.1 µM (inactive)	> 100 µM (inactive)	> 100 µM (inactive)
C=CCCC(=O)C(=[N+]=[N-])C(=O)CCC(=O)c1ccccc1	> 10 µM (inactive)	> 10 µM (inactive)			> 10 µM (inactive)	> 10		> 10 µM (inactive)	> 10 µM (inactive)	> 10 µM (inactive)			> 10 µM (inactive)	> 10 µM (inactive)	8.38 µM (inactive)	> 10 µM (inactive)	> 10 µM (inactive)	> 10 µM (inactive)	> 10 µM (inactive)
Cn1c(=O)cc(Nc2ccc(N)cc2)[nH]c1=O	> 100 µM (inactive)	> 100 µM (inactive)	> 100 µM (inactive)	> 100 µM (inactive)	> 100 µM (inactive)	> 100		> 100 µM (inactive)	> 100 µM (inactive)	49.4 µM (inactive)	> 100 µM (inactive)	> 100 µM (inactive)	> 100 µM (inactive)	> 100 µM (inactive)	> 100 µM (inactive)	> 100 µM (inactive)	> 100 µM (inactive)	> 100 µM (inactive)	> 100 µM (inactive)
COC(C(O)CO)C(O)C(O)C(=O)NNc1ccccc1 (stereo not drawn)	> 100 µM (inactive)	> 100 µM (inactive)	18.6 µM (inactive)	11.7 µM (inactive)	21.7 µM (inactive)	> 100	6.32 µM (inactive)	> 100 µM (inactive)	47.4 µM (inactive)	39.2 µM (inactive)	> 100 µM (inactive)		> 100 µM (inactive)	21 µM (inactive)	> 100 µM (inactive)	23.2 µM (inactive)	> 100 µM (inactive)	> 100 µM (inactive)	> 100 µM (inactive)
CN(C(=O)Cc1ccc(Cl)c(Cl)c1)[C@@H]1CCCC[C@H]1[N+]1(C)CC=CC1	> 100 µM (inactive)	> 100 µM (inactive)	> 100 µM (inactive)	> 100 µM (inactive)	> 100 µM (inactive)	> 100	> 100 µM (inactive)	> 100 µM (inactive)	> 100 µM (inactive)	> 100 µM (inactive)	> 100 µM (inactive)	> 100 µM (inactive)	> 100 µM (inactive)	> 100 µM (inactive)		> 100 µM (inactive)	> 100 µM (inactive)	> 100 µM (inactive)	> 100 µM (inactive)
Cc1ccc(/C=C2\CCS(=O)(=O)c3ccccc3C2=O)cc1	21.2 µM (inactive)	17.5 µM (inactive)	18.3 µM (inactive)	15.2 µM (inactive)	17.6 µM (inactive)	11.9	19.8 µM (inactive)	17 µM (inactive)	11.4 µM (inactive)	11.9 µM (inactive)		15 µM (inactive)	26.7 µM (inactive)	19.2 µM (inactive)	16.7 µM (inactive)	16.1 µM (inactive)	16.6 µM (inactive)	12.6 µM (inactive)	15 µM (inactive)
Cc1cc(C)nc(NS(=O)(=O)c2ccc(Nc3c4ccccc4nc4c(C(=O)NCCO)cccc34)cc2)n1	38.5 µM (inactive)	17.6 µM (inactive)	23.3 µM (inactive)	15.1 µM (inactive)	41.5 µM (inactive)	17.8	31.8 µM (inactive)	13.1 µM (inactive)	25.8 µM (inactive)	18 µM (inactive)	12.3 µM (inactive)	33.3 µM (inactive)	24.5 µM (inactive)	11.8 µM (inactive)	3.27 µM (inactive)	25.9 µM (inactive)		> 10 µM (inactive)	> 100 µM (inactive)
CCOP(=O)(/C=C\n1cc(C)c(=O)[nH]c1=O)OCC	> 100 µM (inactive)	> 100 µM (inactive)	> 100 µM (inactive)	> 100 µM (inactive)	> 100 µM (inactive)	> 100	> 100 µM (inactive)	> 100 µM (inactive)	> 100 µM (inactive)	> 100 µM (inactive)	12.1 µM (inactive)	> 100 µM (inactive)	> 100 µM (inactive)	> 100 µM (inactive)	> 100 µM (inactive)	> 100 µM (inactive)	> 100 µM (inactive)		
NC(=S)N/N=C1\CCCC1C(O)(C(F)(F)Cl)C(F)(F)Cl (stereo not drawn)	> 10 µM (inactive)	> 10 µM (inactive)	> 10 µM (inactive)	> 10 µM (inactive)	> 10 µM (inactive)	> 10		> 10 µM (inactive)	> 10 µM (inactive)	> 10 µM (inactive)	> 10 µM (inactive)	> 10 µM (inactive)	> 10 µM (inactive)	> 10 µM (inactive)	> 10 µM (inactive)	> 10 µM (inactive)	> 10 µM (inactive)		> 10 µM (inactive)
O=P(Oc1ccccc1)(Oc1ccccc1)Oc1c[nH]c2ccccc12	14.1 µM (inactive)	17 µM (inactive)	4.13 µM (inactive)	2.37 µM (inactive)	0.296 µM (active)	12.8	21.7 µM (inactive)	6.07 µM (inactive)	4.07 µM (inactive)	11 µM (inactive)		3.13 µM (inactive)	0.0449 µM (active)	3.28 µM (inactive)	10.8 µM (inactive)	8.91 µM (inactive)	12.1 µM (inactive)	5.33 µM (inactive)	1.57 µM (inactive)
C=CCN(c1cc(OC)c2c(c1[N+](=O)[O-])C(C)(SC)C(=O)N2)S(C)(=O)=O (stereo not drawn)	> 100 µM (inactive)	> 100 µM (inactive)	> 100 µM (inactive)	> 100 µM (inactive)		> 100		> 100 µM (inactive)	> 100 µM (inactive)	> 100 µM (inactive)	82.2 µM (inactive)	47.8 µM (inactive)		77.1 µM (inactive)	91.6 µM (inactive)	> 100 µM (inactive)	50.5 µM (inactive)	> 100 µM (inactive)	32.5 µM (inactive)
C=CC(CCc1ccc(C(=O)OCC)cc1)c1c(N)nc(N)[nH]c1=O (stereo not drawn)	21.2 µM (inactive)	> 100 µM (inactive)	86.3 µM (inactive)	> 100 µM (inactive)		> 100	28.5 µM (inactive)	72.8 µM (inactive)	> 100 µM (inactive)	87.7 µM (inactive)		27.2 µM (inactive)		57.8 µM (inactive)	47.8 µM (inactive)	72.4 µM (inactive)	60.3 µM (inactive)	43.7 µM (inactive)	12.6 µM (inactive)
C=C1CCC[C@@H](C)C(O)[C@@H]2OC(=O)C(=C)[C@@H]2C[C@@H](OC(C)=O)[C@@]2(C)CC[C@@H]1O2 (stereo partly drawn)	9.84 µM (inactive)	7.52 µM (inactive)	6.89 µM (inactive)	6.37 µM (inactive)	7.62 µM (inactive)	3.78		8.47 µM (inactive)	8.15 µM (inactive)	5.55 µM (inactive)	0.916 µM (active)	13.7 µM (inactive)	7.87 µM (inactive)	11.1 µM (inactive)	0.91 µM (active)	9.66 µM (inactive)	7.96 µM (inactive)	8.09 µM (inactive)	7.96 µM (inactive)
CSc1c(C#N)c(N)n(-c2ccc(Cl)cc2)c(=O)c1C#N	> 100 µM (inactive)	> 100 µM (inactive)	> 100 µM (inactive)	> 100 µM (inactive)	> 100 µM (inactive)	> 100	46.3 µM (inactive)	> 100 µM (inactive)	> 100 µM (inactive)	> 100 µM (inactive)	27.5 µM (inactive)	> 100 µM (inactive)	> 100 µM (inactive)		78 µM (inactive)	> 100 µM (inactive)	> 100 µM (inactive)	> 100 µM (inactive)	21 µM (inactive)
Clc1n[nH]c2ccccc12	> 100 µM (inactive)	14.7 µM (inactive)		> 100 µM (inactive)	86.5 µM (inactive)	> 100	> 100 µM (inactive)	> 100 µM (inactive)	> 100 µM (inactive)	> 100 µM (inactive)	> 100 µM (inactive)	> 100 µM (inactive)	> 100 µM (inactive)	> 100 µM (inactive)	> 100 µM (inactive)	> 100 µM (inactive)	> 100 µM (inactive)	> 100 µM (inactive)	> 100 µM (inactive)
